These results are taken from PMC4197335, “Cancer-Selective Targeting of the NF-κB Survival Pathway with GADD45β/MKK7 Inhibitors” (Cancer Cell, 2014).

Where a SMILES comes first, the peptide text is derived from it.

One series deals with KMS-12 MM cells. Put plainly: [3H]thymidine incorporation. Format: cell-based. Particulars: Homo sapiens, single agent at 48 hr. The protocol:
(§1) Additional details are provided in Supplemental Experimental Procedures.
Cell Proliferation, Cell Death, and Apoptosis Assays
W allac Trilux Microbeta 3 β -counter (Perk inElmer). Values were expressed as the percentage of the […]
respective untreated cultures. […]
splitting them as necessary during the assays. […]
previously (Riccardi and Nicoletti, 2006).
Cells were then f ixed in 70% ice- cold ethanol for 16 hr, washed in PBS, and treated with ribonuclease A (50 μg/mL) f or 30 min at room temperature. Samples were f inally stained with PI (50 µg/mL) in 0.1% sodium citrate buffer for 2 to 4 hr at 4°C in the dark , and data were acquired using a FACSCalibur automated system (Becton Dick inson) and analyzed with FlowJo.
The viability of primary CD138 + cells f rom patients was assessed using trypan blue exclusion assays (Mauro et al., 2011; Arnold et al., 2008), perf ormed as described above. Cells were seeded […]
Cell viability in the treated cultures was expressed as the percentage of cell survival relative to the survival observed in the respective untreated cultures, represented as 100%. […]
The activities of DTP3 and bortezomib in the U266 and KMS-12 myeloma cell lines, both as single agents and in combination, were determined using [3H]thymidine incorporation assays, performed as described above in “Cell Prolif eration, Cell Death, and Apoptosis Assays”. […]

In series [1] the test system is human mesenchymal stem cells (MSCs). Put plainly: cells. Conditions: Homo sapiens, Mesenchymal stem cells, 48 h, read-out: IC50 (normal; MCSs).
Description: as §1
(§2) automated system (Becton Dick inson) and analyzed with FlowJo.

The subject of another series is human BMSCs. Put plainly: cells. Particulars: Homo sapiens, BMSC, 48 h, read-out: IC50 (normal; BMSCs).
Description: as §1, §2

Series [2] has as its system CD138+ cells from MM patients. The experiment in a line: cells. Conditions: Homo sapiens, 48 h, read-out: IC50 (MM; PCs (n = 8)).
Description: as §1, §2

In series [3] the test system is mouse lymph node (LN) cells. Put plainly: cells. Conditions: Mus musculus, 48 h, read-out: IC50 (normal; lymph node cells).
Description: as §1, §2

The test system of another series is mouse splenocytes. Put plainly: cells. Conditions: Mus musculus, Splenocyte, 48 h, read-out: IC50 (normal; splenocytes).
Description: as §1, §2

In the next series the test system is human PBMCs. Put plainly: cells. Particulars: Homo sapiens, PBMC, 48 h, read-out: IC50 (normal; PBMCs).
Description: as §1, §2

The test system of series [4] is CD138+ cells from WM patients. Put plainly: cells. Conditions: Homo sapiens, 48 h, read-out: IC50 (WM; PCs (n= 2)).
Description: as §1, §2

The next series has as its system U266 MM cells. Put plainly: cells. Conditions: Homo sapiens, U-266, 48 h.
Another series is described as follows: aqueous solubility. The format is physicochemical.
For a further series, the target named is T1, GADD45β/MKK7 complex (Homo sapiens, UniProt O14733).
T1 construct: Full-length human (h)MKK7 was expressed as a protein fused to an N-terminal GST tag (GST-MKK7); made in house
T1 sequence (O14733 1-419): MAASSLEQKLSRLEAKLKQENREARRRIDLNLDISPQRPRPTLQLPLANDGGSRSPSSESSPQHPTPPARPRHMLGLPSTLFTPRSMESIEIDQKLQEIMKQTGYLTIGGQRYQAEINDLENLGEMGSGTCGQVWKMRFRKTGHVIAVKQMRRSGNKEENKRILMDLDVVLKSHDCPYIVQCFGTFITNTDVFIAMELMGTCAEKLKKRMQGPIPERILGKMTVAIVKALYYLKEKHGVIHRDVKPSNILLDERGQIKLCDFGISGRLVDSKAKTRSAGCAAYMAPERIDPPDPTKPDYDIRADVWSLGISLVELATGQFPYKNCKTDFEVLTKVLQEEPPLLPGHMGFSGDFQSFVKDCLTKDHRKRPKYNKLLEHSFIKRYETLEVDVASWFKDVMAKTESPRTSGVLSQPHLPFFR
The experiment in a line: ELISA GADD45β/MKK7 competition assay. The format is binding.
Description: as §1
(1:1,000) and the HRP chromogenic substrate, o -phenylenediamine (OPD). GST -coated wells wer e […]
The ELISA competition screen used f or the isolation of antagonists of the GADD45β /MKK7 […]
The library deconvolution strategy used for this screen was described previously […]
General information about this type of screens can be found elsewhere […]
Values were expressed as the percentage of inhibition of His6-hGADD45β binding to GST-hMKK7 relative to the binding measured in the absence of […]
Dose-response, ELISA GADD45β /MKK7 competition assays were carried out under similar […]
As part of the SAR analysis and lead optimization process, where appropriate, competitors were tested at a concentration up to 100 nM. In order to determine their stability in biolog ical f luids , peptides were incubated at the concentration of 10 µM in […]
calculated using at least 7 concentrations of peptide and def ined as the mean concentration of peptide […]
the absence of competitor. W here indicated, values were expressed as the percentage of inhibition of His 6 -hGADD45β binding to GST-hMKK7 relative to the binding measured in the absence of competitor.
GST was used as a control in all the experiments. […]
tetrapeptide used as negative control in some of the ELISA and cellular assays was as f ollows: z -DNC, z-T yr -Asp-His-Gln-NH 2 . […]
(ELISA stands for enzyme-linked immunosorbent assay.)

On to `CC(C)C[C@H](NC(=O)[C@H](Cc1ccccc1)NC(=O)c1cnccn1)B(O)O` [Bortezomib, reference compound], for which the IC50 stood at 0.006 µM in the series with KMS-12 MM cells; 0.0794 µM in series [1]; 0.08 µM in the series on human BMSCs; 0.0087 ± 0.0021 µM in series [2]; 0.0911 µM in series [3]; 0.08 µM with mouse splenocytes. For the same compound, the IC50 with human PBMCs was 0.0631 µM; in series [4], 0.00338 ± 0.002 µM; with U266 MM cells, 0.006 µM.

What is called inhibition is the change of the read-out against control, counted positive when it falls. With `CC(=O)N[C@@H](Cc1c[nH]c2ccccc12)C(=O)N[C@@H](CC(=O)O)C(=O)N[C@@H](CCCNC(=N)N)C(=O)N[C@@H](Cc1c[nH]c2ccccc12)C(N)=O` [Ac-WDRW-NH2] (Ac-WDRW-NH2), the aqueous solubility result in the series “aqueous solubility” is “low”. In addition, on GADD45β/MKK7 complex (Table S2, peptide at 42 nM, read-out: % inhibition (ELISA)), the inhibition at 0.042 µM amounted to 93%. For the same compound, the IC50 at GADD45β/MKK7 complex (Table S4, read-out: IC50s (ELISA)) is less than 0.042 µM.
